Results as given in patent publication US20240342265A1, “E PROTEIN-MUTATED WEST NILE VIRUS USED AS LIVE[…] AND ONCOLYTIC DRUG FOR CANCER THERAPY” (priority 2023, published 2024).

Experiments:
[1] = tested on: SH-SY5Y cells (human neuroblastoma); assay: Human neuroblastoma xenograft model in BALB/c nude mice; type: in vivo; conditions: Adriamycin group
Method: The attenuated WNV was tested for oncolytic virus activity. Under aseptic conditions, SH-SY5Y cells (4×106/0.1 ml/per mouse) were inoculated into the right flank region of SPF-grade BALB/c nude mice aged 8 to 10 weeks to establish a human neuroblastoma xenograft model. When the diameter of the subcutaneous tumor nodules reached 5˜6 mm (corresponding to a tumor volume of approximately 50 mm3˜100 mm3), the mice were randomly divided into groups ensuring that the difference in tumor volume between groups was <10%. Grouping and management information are as described in Table 4. The day of the first administration was recorded as D1.
The half-effective dose is 421 PFU.

[2] = tested on: Neuro-2a cells (mouse-derived neuroblastoma); assay: Bilateral mouse neuroblastoma model in A/JGpt mice, right-side intratumoral injection; type: in vivo
Method: Mouse-derived neuroblastoma cells (Neuro-2a cells, 1×10^8/0.1 ml/mouse) were inoculated into the bilateral lumbar region of A/JGpt female mice (SPF grade 5-week-old). When the diameter of subcutaneous tumor nodules reached 5-6 mm (about 50-100 mm^3), mice were randomly divided into groups per the <10% of tumor volume. The DS1-M2-1 was injected intratumorally only into the right-side tumor on day one.
During the test period, the body weight of each mouse was normal. […] Since the left-side tumor is the non-administered side, it is considered that the effect of DS1-M2-1 on the left-side tumor is a result of the immunotherapy effect.

[3] = Doxorubicin-Hydro group, left tumor
[4] = Doxorubicin-Hydro group, right tumor

Structure (SMILES) | % T/C [1] | % TGITV [1] | % TGITW [1] | Tumor Volume (mm^3) Day 31 [1] | Tumor Weight [1] | Max % TGITV, L [2, 3] | No. of mice with tumor completely eliminated, D 22, L [2, 3] | No. of mice with tumor completely eliminated, No./Total, L [2, 3] | Max % TGITV, R [2, 4] | No. of mice with tumor completely eliminated, D 18, R [2, 4] | No. of mice with tumor completely eliminated, D 22, R [2, 4] | No. of mice with tumor completely eliminated, No./Total, R [2, 4] | Max % TGITV, L ([2]; Taxol 20 mg/kg, left tumor) | No. of mice with tumor completely eliminated, No./Total, L ([2]; Taxol 20 mg/kg, left tumor) | Max % TGITV, R ([2]; Taxol 20 mg/kg, right tumor) | No. of mice with tumor completely eliminated, No./Total, R ([2]; Taxol 20 mg/kg, right tumor)
COc1cccc2c1C(=O)c1c(O)c3c(c(O)c1C2=O)C[C@@](O)(C(=O)CO)C[C@@H]3O[C@H]1C[C@H](N)[C@H](O)[C@H](C)O1 [Adriamycin, doxorubicin] | 37.43% | 63.27% | 53.12% | 468.07 ± 145.59 mm^3 | 0.406 ± 0.157 g | 84.23% | 3 | 3/10 | 83.25% | 1 | 2 | 3/10 |  |  |  | 
CC(=O)O[C@H]1C(=O)[C@@]2(C)[C@H]([C@H](OC(=O)c3ccccc3)[C@]3(O)C[C@H](OC(=O)[C@H](O)[C@@H](NC(=O)c4ccccc4)c4ccccc4)C(C)=C1C3(C)C)[C@]1(OC(C)=O)CO[C@@H]1C[C@@H]2O [Taxol, paclitaxel] |  |  |  |  |  |  |  |  |  |  |  |  | 50.74% | 0/4 | 46.73% | 0/4
